From patent US9034906B2, “EP4 agonist” (Asahi Glass Company, Limited, priority 2008, dated 2015)

How the values were obtained:
IL-2 = experiment: Suppression of IL-2 production by anti-CD3/anti-CD28 stimulated CD4 positive T cells; format: cell-based; details: human CD4 positive T cells, anti-CD3 and anti-CD28 antibody, 24 hr, ELISA; geometric mean of three volunteers
Method: Using human peripheral blood, an anti-inflammatory effect of compounds F and J in vitro was studied. Blood was collected from 3 healthy volunteers, and CD4 positive T cells were prepared. Anti-CD3 antibody and anti-CD28 antibody were added, and 24 hr later the amounts of IL-2 and TNFα released in the medium were measured by ELISA. […] The amount of IP-10 released into the medium for 48 hr was measured with ELISA. In both cases, the test compound was added 30 min before stimulation.
Each value is a geometric mean of three volunteers.

human EP1 = molecular target: T1, human EP1 (Homo sapiens, UniProt P34995); experiment: Receptor affinity, tritium-labeled PGE2 binding to membranes of transfected COS-7 cells; details: COS-7 cell membranes
T1 construct: expressed in transfected cells; host or cells: COS-7 (membranes)
T1 sequence (P34995 1-402): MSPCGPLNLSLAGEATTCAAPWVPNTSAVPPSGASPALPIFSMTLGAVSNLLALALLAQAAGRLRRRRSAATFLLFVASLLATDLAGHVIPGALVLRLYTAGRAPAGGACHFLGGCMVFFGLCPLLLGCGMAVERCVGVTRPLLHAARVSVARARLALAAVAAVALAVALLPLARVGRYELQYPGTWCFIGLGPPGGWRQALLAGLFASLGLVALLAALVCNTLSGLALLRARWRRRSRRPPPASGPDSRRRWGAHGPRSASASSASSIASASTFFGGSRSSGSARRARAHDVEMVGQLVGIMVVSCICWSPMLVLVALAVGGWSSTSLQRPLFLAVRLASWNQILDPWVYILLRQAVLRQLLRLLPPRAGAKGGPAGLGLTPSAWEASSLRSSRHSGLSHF
Method: PG receptor affinity of compound F and compound J of the present invention was evaluated. Compound F used was one synthesized in Example 9, and compound J was prepared by separating and purifying the compound synthesized in Example 14 with a column (the same preparations were used in the following Examples). COS-7 cells were transfected with the genes of mouse EP4, human EP1-4 or human IP to overexpress the receptor and then the cell membranes were collected. As a labeled ligand, tritium-labeled PGE2 was used for EPs; tritium-labeled iloprost, for IP. The dissociation constant Kd value was obtained and inhibition constant Ki value of each test compound was determined in a conventional method. As a reference control, PGE2 was used for EPs; beraprost sodium (BPS), for IP.

- IC50 (IL-2): 0.062 nM
- Ki (human EP1): 2.9 nM
Compound: CCCCC[C@H](O)/C=C/[C@H]1[C@H](O)CC(=O)[C@@H]1C/C=C\CCCC(=O)O [PGE2]
